Experimental data as given in patent US9663495B2 (YUHAN CORPORATION, priority 2013, dated 2017).

Key:
male C57BL/6 mice = assay: Oral Glucose Tolerance Test (OGTT); format: in vivo; design: concentration or dose not given beside the values; details: fasted male C57BL/6 mice, oral administration 30 minutes before oral glucose; AUCglucose 0-120 minutes versus negative control group
Protocol: The oral glucose tolerance test of the compounds according to the present invention was carried out according to the procedures disclosed in Andrikopoulos S, Blair A R, Deluca N, Fam B C, Proietto J, Am J Physiol Endocrinol Metab. 2008, Vol 295, E1323-1332. Briefly, male C57BL/6 mice at 8 to 9 weeks of age having 20 g to 25 g of body weight (Orient Bio Inc. Korea) were allowed to acclimatize to the surroundings (temperature: 20±2° C., humidity: 40-60%, light/dark cycle: 12 hours) for 1 week. During the acclimatization, the mice were given ad libitum access to feed and water. The mice were fasted from 18 hours before the test, except for allowing free access to water. After measuring the mice′ body weights and blood sugar levels, they were divided into test groups so as to have similar blood sugar levels. The mice were orally administered with a mixture of test compound and the diluent (0.5% solution of MC1500 (Sigma)). At 30 minutes after the administration, the mice were also orally administered with 20% glucose solution in an amount of 0.1 ml per 10 g of body weight. The blood samples were taken from the tail vain at 0 (right before the administration of the glucose solution), 15, 30, 60, 90, and 120 minutes after the administration of the glucose solution; and the blood sugar levels thereof were measured with a blood glucose test meter (GlucoDr. AGM-3000, All Medicus Co. Ltd.). The graph for blood sugar level on time for each test compound was plotted from the respective blood sugar values; and then area under the curve (AUCglucose) was determined. The inhibition rate of blood sugar (%) was calculated from the following formula. Inhibition rate of blood sugar (%)=[(AUCglucose of the negative control group−AUCglucose of the test group)/AUCglucose of the negative control group]×100

GPR119 [1] = biological target: T1, GPR119 (Homo sapiens, UniProt Q8TDV5); assay: cAMP Accumulation Assay (GPR119 CRE-bla CHO-K1 cells, LiveBLAzer-FRET B/G); format: cell-based; details: for Emax (Fold): maximum activity, response ratio versus non-treated control group; for EC50: 5 hours incubation
T1 construct: host or cells: CHO-K1 (GPR119 CRE-bla, doxycycline-induced)
T1 sequence (Q8TDV5 1-335): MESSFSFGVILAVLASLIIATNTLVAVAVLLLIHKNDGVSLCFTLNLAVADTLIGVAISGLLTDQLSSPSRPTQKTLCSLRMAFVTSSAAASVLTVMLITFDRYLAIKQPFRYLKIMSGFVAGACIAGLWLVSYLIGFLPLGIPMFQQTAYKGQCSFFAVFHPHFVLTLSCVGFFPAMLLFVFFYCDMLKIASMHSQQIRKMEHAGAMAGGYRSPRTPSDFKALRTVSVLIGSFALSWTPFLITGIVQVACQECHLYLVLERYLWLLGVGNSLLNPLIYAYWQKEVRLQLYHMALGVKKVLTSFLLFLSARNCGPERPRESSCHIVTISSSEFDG
Protocol: 32 μl of an assay medium (DMEM supplemented with GlutaMax™ 99%, dialyzed FBS 1%, non-essential amino acid 1 mM, HEPES 25 mM, penicillin 100 U/ml, and streptomycin 100 μg/ml) was added to each well of a 384 black well plate and then the GPR119 CRE-bla CHO-K1 cells (Invitrogen) were seeded in 1×10^4 cells per well. Doxycycline was dissolved in the assay medium in the concentration of 1 μg/ml. The resulting solution (4 μl) was added to each well, which was then incubated in a 5% CO 2 incubator at 37° C. for about 20 to 24 hours. Each test compounds were diluted with the assay medium to prepare 10 samples, which have concentrations ranging from […], respectively. Each samples (8 μl) was added to each well, which was then incubated in a 5% CO2 incubator at 37° C. for 5 hours. In case of the control group, the well was treated with a solution (8 μl) prepared by diluting dimethyl sulfoxide (DMSO) in the assay medium to 1%. The substrate mixture (8 μl) was added to each well, which was then left under darkness at room temperature for 2 hours. The substrate mixture contains the followings: 1 mM LiveBLAzer™-FRET B/G(CCF4-AM) substrate 6 μl, solution B 60 μl, solution C 904 μl, and solution D 30 μl.
Fluorescence intensity was determined under the wavelength conditions of 400 nm/465 nm (excitation/emission) for the blue channel and 400 nm/535 nm (excitation/emission) for the green channel, with the fluorescence microplate reader (SpectraFluor Plus. TECAN). The net activity of each well was calculated by subtracting the average value of the cell-free control group from the value of the unstimulated (i.e., non-treated) control group or the stimulated (i.e., test compound-treated) group at each wavelength. MBX-2982 (Metabolex) was used as a control drug. The response ratio was calculated by dividing the net signal ratio (465 nm/535 nm) of the control drug or the test compound by the net signal ratio (465 nm/535 nm) of the non-treated control group. The relative ratio (R.R) was calculated by dividing the maximum activity [Emax (fold)] of the test compound (i.e., % activity in comparison with the background) by the maximum activity [Emax (fold)] of the control drug (MBX-2982) [Emax (% RR)=(Emax of the test compound/Emax of MBX-2982)×100]. EC50 (half maximal effective concentration) was calculated using the software for statistical analysis “Prism 5.0 (GraphPad)”, based on the values obtained according to concentrations of the test compounds.

GPR119 [2] = biological target: T1, GPR119; assay: as above; format: cell-based; details: (Emax of the test compound/Emax of MBX-2982)x100, 5 hours incubation

Compound | Inhibition rate of blood sugar (%) (male C57BL/6 mice) | Emax (Fold) (GPR119 [1]) | Emax (% RR) (GPR119 [2]) | EC50 (GPR119 [1]) [nM]
CCc1cnc(N2CCN(c3ncc(-c4ccc(-n5cnn(C(C)C)c5=O)c(F)c4)cc3C#N)CC2)nc1.Cl [Example 43, 2-(4-(5-ethylpyrimidin-2-yl)piperazin-1-yl)-5-(3-fluoro-4-(1-isopropyl-5-oxo-1H-1,2,4-triazol-4(5H)-yl)phenyl)nicotinonitrile hydrochloride] | 25.2 | 3.8 | 130.9 | –
CCc1cnc(N2CCN(c3ncc(-c4ccc(-n5cnn(C(C)C)c5=O)c(F)c4)cc3C#N)CC2)nc1 [Example 44, 2-(4-(5-ethylpyrimidin-2-yl)piperazin-1-yl)-5-(3-fluoro-4-(1-isopropyl-5-oxo-1H-1,2,4-triazol-4(5H)-yl)phenyl)nicotinonitrile sulfonate] | 27.0 | – | – | –
CCCn1ncn(-c2ccc(-c3ccc(N4CCN(C(=O)OC(C)(C)C)CC4C(F)(F)F)nc3)cc2F)c1=O (centres unmarked) [Example 50, tert-butyl 4-(5-(3-fluoro-4-(5-oxo-1-propyl-1H-1,2,4-triazol-4(5H)-yl)phenyl)pyridin-2-yl)-3-(trifluoromethyl)piperazin-1-carboxylate] | 15.6 | – | – | –
CCN(CC)CCn1ncn(-c2ccc(-c3cnc(N4CCC(c5nc(C(C)C)no5)CC4)c(C#N)c3)cc2F)c1=O [Example 63, 5-(4-(1-(2-(diethylamino)ethyl)-5-oxo-1H-1,2,4-triazol-4(5H)-yl)-3-fluorophenyl)-2-(4-(3-isopropyl-1,2,4-oxadiazol-5-yl)piperidin-1-yl)nicotinonitrile] | 27.7 | – | – | –
CCN(CC)CCn1ncn(-c2ccc(-c3cnc(N4CCC(N(C)C(=O)OC(C)(C)C)CC4)c(C#N)c3)cc2F)c1=O [Example 61, tert-butyl 1-(3-cyano-5-(4-(1-(2-(diethylamino)ethyl)-5-oxo-1H-1,2,4-triazol-4(5H)-yl)-3-fluorophenyl)pyridin-2-yl)piperidin-4-yl(methyl)carbamate] | 18.0 | – | – | –
CCc1cnc(N2CCN(c3ncc(-c4ccc(-n5cn[nH]c5=O)c(F)c4)cc3C#N)[C@@H](C)C2)nc1 [Example 21, (S)-2-(4-(5-ethylpyrimidin-2-yl)-2-methylpiperazin-1-yl)-5-(3-fluoro-4-(5-oxo-1H-1,2,4-triazol-4(5H)-yl)phenyl)nicotinonitrile] | – | 2.9 | 102.0 | 2
CCc1cnc(N2CCN(c3ncc(-c4ccc(-n5cnn(CC(C)C)c5=O)c(F)c4)cc3C#N)[C@@H](C)C2)nc1 [Example 12, (S)-2-(4-(5-ethylpyrimidin-2-yl)-2-methylpiperazin-1-yl)-5-(3-fluoro-4-(1-isobutyl-5-oxo-1H-1,2,4-triazol-4(5H)-yl)phenyl)nicotinonitrile] | – | 2.6 | 103.8 | 1
CCc1cnc(N2CCN(c3ncc(-c4ccc(-n5cnn(COC)c5=O)c(F)c4)cc3C#N)[C@@H](C)C2)nc1 [Example 22, (S)-2-(4-(5-ethylpyrimidin-2-yl)-2-methylpiperazin-1-yl)-5-(3-fluoro-4-(1-(methoxymethyl)-5-oxo-1H-1,2,4-triazol-4(5H)-yl)phenyl)nicotinonitrile] | – | 3.2 | 119.3 | 10.2
CCc1cnc(N2CCN(c3ncc(-c4ccc(-n5cnn(CCOC)c5=O)c(F)c4)cc3C#N)CC2)nc1 [Example 31, 5-(4-(1-(2-methoxyethyl)-5-oxo-1H-1,2,4-triazol-4(5H)-yl)-3-fluorophenyl)-2-(4-(5-ethylpyrimidin-2-yl)piperazin-1-yl)nicotinonitrile] | – | 3.4 | 148.7 | 10
CC(C)n1ncn(-c2ccc(-c3cnc(N4CCN(C(=O)OC(C)(C)C)C[C@@H]4C)nc3)cc2F)c1=O [Example 3, (S)-tert-butyl 4-(5-(3-fluoro-4-(1-isopropyl-5-oxo-1H-1,2,4-triazol-4(5H)-yl)phenyl)pyrimidin-2-yl)-3-methylpiperazin-1-carboxylate] | – | 3.4 | 113.4 | 62
CCc1cnc(N2CCN(c3ncc(-c4ccc(-n5cnn(CCN(C(=O)OC(C)(C)C)C(C)C)c5=O)c(F)c4)cc3C#N)[C@@H](C)C2)nc1 [Example 19, (S)-tert-butyl 2-(4-(4-(5-cyano-6-(4-(5-ethylpyrimidin-2-yl)-2-methylpiperazin-1-yl)pyridin-3-yl)-2-fluorophenyl)-5-oxo-4,5-dihydro-1H-1,2,4-triazol-1-yl)ethyl(isopropyl)carbamate] | – | 3.5 | 113.0 | 5.4
CCCn1ncn(-c2ccc(-c3cnc(N4CCC(c5noc(C(C)C)n5)CC4)c(C#N)c3)cc2F)c1=O [Example 66, 5-(3-fluoro-4-(5-oxo-1-propyl-1H-1,2,4-triazol-4(5H)-yl)phenyl)-2-(4-(5-isopropyl-1,2,4-oxadiazol-3-yl)piperidin-1-yl)nicotinonitrile] | – | 3.1 | 122.1 | 2.5
C[C@H]1CN(c2ccc(C(F)(F)F)cn2)CCN1c1ncc(-c2ccc(-n3cnn(C)c3=O)c(F)c2)cn1 [Example 8, (S)-4-(2-fluoro-4-(2-(2-methyl-4-(5-(trifluoromethyl)pyridin-2-yl)piperazin-1-yl)pyrimidin-5-yl)phenyl)-1-methyl-1H-1,2,4-triazol-5(4H)-one] | – | 2.5 | 113.4 | 5
CC(C)c1nc(C2CCN(c3ncc(-c4ccc(-n5cnn(CC(N)=O)c5=O)cc4)cc3C#N)CC2)no1 [Example 72, 2-(4-(4-(5-cyano-6-(4-(5-isopropyl-1,2,4-oxadiazol-3-yl)piperidin-1-yl)pyridin-3-yl)phenyl)-5-oxo-4,5-dihydro-1H-1,2,4-triazol-1-yl)acetamide] | 16.5 | – | – | –
CC(C)c1nc(C2CCN(c3ncc(-c4ccc(-n5cnn(CN6CCCC6)c5=O)c(F)c4)cc3C#N)CC2)no1 [Example 68] | – | 3.8 | 130.8 | 2.6
